In US10385097B2, “Ether compounds for treatment of medical disorders” (Achillion Pharmaceuticals, Inc., priority 2015, dated 2019):
pIC50: −log10 of the molar value.

Biological target: T1, Human Factor D (Homo sapiens, UniProt P00746)
T1 construct: purified from human serum; purchased Complement Technology, Inc; host or cells: human serum (natural protein, not recombinant)
Assay: Human Factor D Assay
Format: biochemical
Settings: Table 3; Human Factor D 80 nM, substrate Z-L-Lys-SBzl; read-out: (IC50 (Stars))
In short: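 Serum-purified factor D (80 nM final) preincubated 5 min at room temperature with compound in 50 mM Tris, 1 M NaCl, pH 7.5. Reaction started with 100 μM Z-L-Lys-SBzl plus 100 μM DTNB; A405 read every 30 s for 30 min; IC50 by nonlinear regression of rates.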

T1 sequence (P00746 26-253): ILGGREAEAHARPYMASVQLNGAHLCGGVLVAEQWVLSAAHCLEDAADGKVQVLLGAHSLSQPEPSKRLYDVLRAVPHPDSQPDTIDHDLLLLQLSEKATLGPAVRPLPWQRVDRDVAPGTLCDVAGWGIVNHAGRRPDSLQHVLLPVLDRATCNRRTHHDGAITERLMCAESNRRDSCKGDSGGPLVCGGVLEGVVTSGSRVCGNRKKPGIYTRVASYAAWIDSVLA

pIC50	SMILES
> 6.00	CC(=O)c1cn(CC(=O)N2C[C@H](F)C[C@H]2C(=O)Nc2cccc(-c3ccccc3Cl)c2F)c2ccc(OCC[S+]([O-])CC3(C)COC3)cc12 (stereo partly drawn) [Compound 252, (2S,4R)-1-(2-(3-acetyl-5-(2-((3-methyloxetan-3-yl)methylsulfinyl)ethoxy)-1H-indol-1-yl)acetyl)-N-(2′-chloro-2-fluorobiphenyl-3-yl)-4-fluoropyrrolidine-2-carboxamide]
> 6.00	CC(=O)c1cn(CC(=O)N2C[C@H](F)C[C@H]2C(=O)Nc2cccc(-c3ccccc3Cl)c2F)c2ccc(OCCS(=O)(=O)CC3(C)COC3)cc12 [Compound 253, (2S,4R)-1-(2-(3-acetyl-5-(2-((3-methyloxetan-3-yl)methylsulfonyl)ethoxy)-1H-indol-1-yl)acetyl)-N-(2′-chloro-2-fluorobiphenyl-3-yl)-4-fluoropyrrolidine-2-carboxamide]
